For 17 compounds, Emax and EC50 results are on record in patent publication US10487087B2, “Positive allosteric modulators of the GLP-1 receptor” (Vanderbilt University, priority 2015, dated 2019).

Assay [1] deals with T1, human GLP-1R (Homo sapiens (Human), UniProt P43220). In words: GLP-1 assay with GLP1 endogenous agonist (calcium mobilization, EC20 GLP-1 peptide 7-36 amide). Conditions: calcium flux; for Emax at 30 µM: 30 μM compound, EC20 of GLP-1 7-36 amide; for EC50: potentiation of EC20 GLP-1 7-36 amide. The assay is classed as cell-based. The text has this: A. GLP-1 Assay with GLP1 Endogenous Agonist
(§1) To assess the effects of test compounds on GLP-1 or glucagon potency and efficacy, a high-throughput calcium mobilization assay was used essentially as previously described (Morris L C, Days E L, Turney M, Mi D, Lindsley C W, Weaver C D, Niswender K D, A Duplexed High-Throughput Screen to Identify Allosteric Modulators of the Glucagon-Like Peptide 1 and Glucagon Receptors. J. Biomol. Screen. 2014 Feb. 13, 19(6):847-858). Briefly, human GLP-1R or Glucagon Receptor 9-3-H cells over-expressing a promiscuous G-protein (Millipore, Billerica, Mass.) were plated at 15,000 cells/well in black-walled 384-well plates (Greiner Bio-one, Monroe, N.C.) in Dulbecco's Modified Eagles Medium (DMEM) with 10% FCS, 4.0 mM L-glutamine, non-essential amino acids (NEAAs), and 10.0 mM HEPES without antibiotics. After overnight attachment, cells were washed twice with assay buffer (HBSS supplemented with 20 mM HEPES and 1.0 mM probenecid) using an ELx405CW cell washer (Bio-Tek, Winooski, Vt.) and then loaded with the calcium sensitive dye fluo-4 AM (Invitrogen, Grand Island, N.Y.) at a final concentration of 2.0 μM in assay buffer. After a 45-minute incubation at room temperature, the dye was removed by washing, leaving 20 μL of assay buffer. Next, the cell plate was introduced alongside a 384-well compound plate containing 0.1% final DMSO control wells and 11-point concentration response curves of putative GLP-1 PAMs created using a non-pipet based liquid transfer instrument, ECH0555 (Labcyte, Sunnyvale, Calif.). After a 20 μL compound addition to the appropriate wells, kinetic fluorescent measurements were collected for 2 minutes using an FDSS6000 (Hamamatsu, Bridgewater, N.J.) with 488 nm excitation and 480/540 emission filters. After 2 minutes, 10 μL of an EC20 concentration of GLP-1 peptide 7-36 amide (Phoenix Pharmaceuticals, Burlingame, Calif.), Glucagon (Phoenix Pharmaceuticals, Burlingame, Calif.) Exendin-4 (Tocris Bioscience, Bristol, UK), or Liraglutide (Victoza™, Novo-Nordisk, Denmark) was added and fluorescence was monitored for an additional 2 minutes to observe potentiation of the calcium flux signal. […] Recombinant peptides were reconstituted into assay buffer supplemented with 0.1% fatty acid free BSA (Sigma #A6003) and diluted into borosilicate glass tubes to maximize peptide recovery (Goebel-Stengel M, Stengel A, Tache Y, Reeve J R Jr., The importance of using the optimal plasticware and glassware in studies involving peptides. Anal. Biochem. 2011 Jul. 1, 414(1):38-46).
(§2) Data is from a single experiment unless otherwise noted. Data that is an average of two experiments is noted as “n=2” while data that is an average of three or more experiments is presented as the average plus or minus the standard error of the mean.
(In general: A change in cytosolic calcium serves as a functional read-out for many receptors and channels.)

Assay [2] concerns the target T1, human GLP-1R. Kind of assay: GLP-1 assay with EX-4 synthetic agonist (calcium mobilization, EC20 EX-4). Conditions: calcium flux; for Emax at 30 µM: 30 μM compound, EC20 of EX-4; for EC50: potentiation of EC20 EX-4, read-out: GLP1 EC50 (Ex-4 synthetic agonist). The assay is classed as cell-based.
Description: B. GLP-1 Assay with EX-4 Synthetic Agonist
as §1, with “L-glutamine, 1×” for “L-glutamine,”, “EL×405CW” for “ELx405CW”, “EX-4” for “GLP-1 peptide 7-36 amide”, “Taché” for “Tache”
as §2

T1 sequence (P43220 24-463): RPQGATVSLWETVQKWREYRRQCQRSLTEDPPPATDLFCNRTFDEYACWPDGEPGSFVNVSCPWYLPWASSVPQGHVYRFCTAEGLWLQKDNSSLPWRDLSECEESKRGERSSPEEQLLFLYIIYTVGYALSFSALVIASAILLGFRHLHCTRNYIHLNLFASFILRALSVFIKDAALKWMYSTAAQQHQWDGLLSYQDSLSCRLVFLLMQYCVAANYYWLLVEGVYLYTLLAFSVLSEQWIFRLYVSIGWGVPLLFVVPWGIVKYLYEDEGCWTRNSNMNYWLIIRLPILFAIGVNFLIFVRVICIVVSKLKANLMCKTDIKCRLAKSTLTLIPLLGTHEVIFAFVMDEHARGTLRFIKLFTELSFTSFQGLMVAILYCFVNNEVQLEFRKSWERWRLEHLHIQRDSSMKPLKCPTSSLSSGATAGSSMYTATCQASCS

As a reminder, the Emax is the size of the effect at its maximum, as opposed to the concentration needed. For orientation: EC50 means the concentration that produces a half-maximal response. Take `Cc1c2ccccc2n2c(C(=O)NC[C@H]3CCCN3C(C)C)cn([C@H]3CCOC3)c(=O)c12` [Compound 5, N-(((R)-1-isopropylpyrrolidin-2-yl)methyl)-10-methyl-1-oxo-2-((S)-tetrahydrofuran-3-yl)-1,2-dihydropyrazino[1,2-a]indole-4-carboxamide]: at human GLP-1R [1], the Emax at 30 µM worked out at 56% and the EC50 was determined as 4.2 µM. At human GLP-1R [2], the Emax at 30 µM was 55% and the EC50 came to 5.9 µM.
`Cc1c2ccccc2n2c(CO)cn(C3CCCC3)c(=O)c12` [Compound 23, 2-cyclopentyl-4-(hydroxymethyl)-10-methylpyrazino[1,2-a]indol-1(2H)-one]: the concentration giving a half-maximal response (EC50) on human GLP-1R [1] is > 30 µM.
With `CC(C)N1CCC[C@H]1CNC(=O)c1cn(C2CCCC2)c(=O)c2c(Br)c3ccccc3n12` [Compound 12, (S)-10-bromo-2-cyclopentyl-N-((1-isopropylpyrrolidin-2-yl)methyl)-1-oxo-1,2-dihydropyrazino[1,2-a]indole-4-carboxamide], on human GLP-1R [1], the maximum response (Emax) at 30 µM was determined as 53% and the 50% effective concentration (EC50) stood at 2.2 µM. For the same compound, on human GLP-1R [2], the Emax at 30 µM turned out to be 59% and the EC50 is 3.6 µM.
In the case of `Cc1c2cc(F)ccc2n2c(C(=O)NC[C@H]3CCCN3C(C)C)cn(C3CCCC3)c(=O)c12` [Compound 7, (R)-2-cyclopentyl-8-fluoro-N-((1-isopropylpyrrolidin-2-yl)methyl)-10-methyl-1-oxo-1,2-dihydropyrazino[1,2-a]indole-4-carboxamide], the EC50 at human GLP-1R [1] and at human GLP-1R [2] was > 30 µM in each case.
With `Cc1c2n(c3ccccc13)[C@@H](C(=O)NC[C@@H]1CCCN1C(C)C)CN(C1CCCC1)C2=O` [Compound 8, (R)-2-cyclopentyl-N-(((S)-1-isopropylpyrrolidin-2-yl)methyl)-10-methyl-1-oxo-1,2,3,4-tetrahydropyrazino[1,2-a]indole-4-carboxamide], at human GLP-1R [1], the maximal response (Emax) at 30 µM was 56% and the concentration for a half-maximal effect (EC50) amounted to 3.6 µM. Moreover, at human GLP-1R [2], the maximum response (Emax) at 30 µM came to 56% and the EC50 stood at 3.6 µM.
Consider `CC(C)N1CCC[C@@H]1CNC(=O)c1cn(C2CCCC2)c(=O)c2c(Cl)c3ccccc3n12` [Compound 11, (R)-10-chloro-2-cyclopentyl-N-((1-isopropylpyrrolidin-2-yl)methyl)-1-oxo-1,2-dihydropyrazino[1,2-a]indole-4-carboxamide], for which, on human GLP-1R [1], the Emax at 30 µM came out at 44% and the EC50 is > 30 µM. Besides, the EC50 on human GLP-1R [2] was > 30 µM.
For `Cc1c2ccccc2n2c(C(=O)NC[C@H]3CCCN3C(C)C)cn(-c3ccccc3)c(=O)c12` [Compound 15, (R)-N-((1-isopropylpyrrolidin-2-yl)methyl)-10-methyl-1-oxo-2-phenyl-1,2-dihydropyrazino[1,2-a]indole-4-carboxamide], the EC50 at human GLP-1R [1] was > 30 µM.
Take `C=Cc1c2ccccc2n2c(C(=O)NC[C@@H]3CCCN3C(C)C)cn(C3CCCC3)c(=O)c12` [Compound 17, (S)-2-cyclopentyl-N-((1-isopropylpyrrolidin-2-yl)methyl)-1-oxo-10-vinyl-1,2-dihydro-pyrazino[1,2-a]indole-4-carboxamide]: on human GLP-1R [1], the Emax at 30 µM is 37% and the EC50 worked out at 9.6 µM.
For `CC(C)N1CCC[C@H]1CNC(=O)c1cn(C2CCCC2)c(=O)c2c(C#N)c3ccccc3n12` [Compound 16, (S)-10-cyano-2-cyclopentyl-N-((1-isopropylpyrrolidin-2-yl)methyl)-1-oxo-1,2-dihydropyrazino[1,2-a]indole-4-carboxamide], in that order: 43% and 1.9 µM.
Take `Cc1c2ccccc2n2c(C(=O)NC[C@H]3CCCN3C(C)C)cn(-c3cccnc3)c(=O)c12` [Compound 21, (R)-N-((1-isopropylpyrrolidin-2-yl)methyl)-10-methyl-1-oxo-2-(pyridin-3-yl)-1,2-dihydropyrazino[1,2-a]indole-4-carboxamide]: the EC50 at human GLP-1R [1] was > 30 µM.
Same read-out and setting: the figure for `Cc1c2ccccc2n2c(C(=O)NC[C@H]3CCCN3C(C)C)cn(-c3cnn(C)c3)c(=O)c12` [Compound 19, (R)-N-((1-isopropylpyrrolidin-2-yl)methyl)-10-methyl-2-(1-methyl-1H-pyrazol-4-yl)-1-oxo-1,2-dihydropyrazino[1,2-a]indole-4-carboxamide] is > 30 µM.
In the case of `Cc1c2ccccc2n2c(C(=O)NCC3CCN3C(C)C)cn(C3CCCC3)c(=O)c12` (centres unmarked) [Compound 24, 2-cyclopentyl-N-((1-isopropylazetidin-2-yl)methyl)-10-methyl-1-oxo-1,2-dihydropyrazino[1,2-a]indole-4-carboxamide], on human GLP-1R [1], the Emax at 30 µM is 51% and the EC50 was 12 µM.
For `Cc1c2ccccc2n2c(C(=O)NC[C@@H]3CCCN3C(C)C)cn(-c3cnn(C)c3)c(=O)c12` [Compound 18, (S)-N-((1-isopropylpyrrolidin-2-yl)methyl)-10-methyl-2-(1-methyl-1H-pyrazol-4-yl)-1-oxo-1,2-dihydropyrazino[1,2-a]indole-4-carboxamide], in that order: 34% and 6.7 µM.
For `Cc1c2ccccc2n2c(C(=O)NC[C@@H]3CCCN3C(C)C)cn(-c3ccccc3)c(=O)c12` [Compound 14, (S)-N-((1-isopropylpyrrolidin-2-yl)methyl)-10-methyl-1-oxo-2-phenyl-1,2-dihydropyrazino[1,2-a]indole-4-carboxamide], in that order: 45% and 13 µM.
Regarding `Cc1c2ccccc2n2c(C(=O)O)cn(C3CCCC3)c(=O)c12` [Compound I, 2-Cyclopentyl-10-methyl-1-oxo-1,2-dihydropyrazino[1,2-a]indole-4-carboxylic acid], the EC50 at human GLP-1R [1] is > 30 µM.
Take `Cc1c2ccccc2n2c(C(=O)NCC3CCN3)cn(C3CCCC3)c(=O)c12` (centres unmarked) [Compound 22, N-(azetidin-2-ylmethyl)-2-cyclopentyl-10-methyl-1-oxo-1,2-dihydropyrazino[1,2-a]indole-4-carboxamide]: the EC50 on human GLP-1R [1] was > 30 µM.
`Cc1c2ccccc2n2c(C(=O)NC[C@@H]3CCCN3C(C)C)cn(-c3cccnc3)c(=O)c12` [Compound 20, (S)-N-((1-isopropylpyrrolidin-2-yl)methyl)-10-methyl-1-oxo-2-(pyridin-3-yl)-1,2-dihydropyrazino[1,2-a]indole-4-carboxamide]: at human GLP-1R [1], the Emax at 30 µM is 36% and the EC50 stood at 5.2 µM.
